# Literature values, collected in US6683056B2, “O-aryl glucoside SGLT2 inhibitors and method” (Bristol-Myers Squibb Company, priority 2000, dated 2004).
# What was measured:
# SGLT1 = molecular target: T1, SGLT1 (Homo sapiens, UniProt P13866)
# T1 sequence (P13866 1-664): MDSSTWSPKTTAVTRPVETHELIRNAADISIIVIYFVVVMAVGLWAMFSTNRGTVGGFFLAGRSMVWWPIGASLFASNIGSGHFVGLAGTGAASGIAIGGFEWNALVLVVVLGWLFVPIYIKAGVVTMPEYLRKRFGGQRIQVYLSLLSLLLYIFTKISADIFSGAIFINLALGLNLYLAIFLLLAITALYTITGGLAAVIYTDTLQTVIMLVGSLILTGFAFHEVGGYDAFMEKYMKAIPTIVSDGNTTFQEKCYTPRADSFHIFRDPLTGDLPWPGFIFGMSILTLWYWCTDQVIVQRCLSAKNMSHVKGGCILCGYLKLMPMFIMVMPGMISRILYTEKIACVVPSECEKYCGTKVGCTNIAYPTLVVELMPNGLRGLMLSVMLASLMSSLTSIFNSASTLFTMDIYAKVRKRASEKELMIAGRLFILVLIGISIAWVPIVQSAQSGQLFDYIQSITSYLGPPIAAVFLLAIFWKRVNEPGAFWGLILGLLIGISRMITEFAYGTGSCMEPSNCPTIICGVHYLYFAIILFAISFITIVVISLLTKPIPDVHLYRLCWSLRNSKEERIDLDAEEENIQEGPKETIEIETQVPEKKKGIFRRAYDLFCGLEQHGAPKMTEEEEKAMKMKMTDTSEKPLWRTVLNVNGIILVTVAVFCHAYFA
# SGLT2 = molecular target: T2, SGLT2 (Homo sapiens, UniProt P31639); conditions: read-out: Km values for uptake
# T2 sequence (P31639 1-672): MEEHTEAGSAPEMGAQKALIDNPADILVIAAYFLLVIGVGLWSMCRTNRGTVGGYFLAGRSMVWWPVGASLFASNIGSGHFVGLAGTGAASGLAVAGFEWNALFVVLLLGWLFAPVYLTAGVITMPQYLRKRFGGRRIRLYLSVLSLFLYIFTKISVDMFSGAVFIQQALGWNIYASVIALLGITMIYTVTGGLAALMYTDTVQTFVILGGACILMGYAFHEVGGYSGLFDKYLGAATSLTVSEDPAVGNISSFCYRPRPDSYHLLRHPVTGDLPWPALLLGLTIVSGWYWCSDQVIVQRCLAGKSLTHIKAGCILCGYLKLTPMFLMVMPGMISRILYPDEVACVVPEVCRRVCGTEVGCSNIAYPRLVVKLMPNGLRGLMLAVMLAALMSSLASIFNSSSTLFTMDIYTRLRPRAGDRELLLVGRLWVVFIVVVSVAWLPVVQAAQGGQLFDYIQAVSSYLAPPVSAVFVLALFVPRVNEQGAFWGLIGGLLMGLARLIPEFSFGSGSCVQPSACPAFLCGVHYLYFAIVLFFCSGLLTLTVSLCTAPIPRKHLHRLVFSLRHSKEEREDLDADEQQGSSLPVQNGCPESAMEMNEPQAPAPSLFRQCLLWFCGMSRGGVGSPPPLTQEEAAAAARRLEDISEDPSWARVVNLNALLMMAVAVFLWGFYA
# [1] = system: facilitative glucose transporters (GLUTs)
# normal animals = conditions: despite the presence of glycosuria
# [2] = system: several diabetic rodent models and one canine diabetes model
# [3] = oral
smiles,measurement,setting,value
"CO[C@H]1O[C@H](CO)[C@@H](O)[C@H](O)[C@H]1O [AMG, α-methyl-D-glucopyranoside]",Km,"SGLT1; SGLT1, read-out: Km values for uptake",400 µM
same,Km,SGLT2,1600 µM
O=C[C@H](O)[C@@H](O)[C@@H](O)[C@H](O)CO [galactose],substrate specificity,SGLT1; SGLT1 versus SGLT2,substrate for SGLT1 only
O=C(CCc1ccc(O)cc1)c1c(O)cc(O)cc1O [phloretin],inhibition of facilitated glucose transport,[1],potent inhibitor of facilitated glucose transport
O=C(CCc1ccc(O)cc1)c1c(O)cc(O)cc1O[C@@H]1O[C@H](CO)[C@@H](O)[C@H](O)[C@H]1O [phlorizin],hypoglycemic or other adverse effects,normal animals,no hypoglycemic or other adverse effects
same,in vivo effect on glucose excretion and plasma glucose,[2]; diabetic rodent models and one canine diabetes model,"promoting glucose excretion, lowering fasting and fed plasma glucose, and promoting glucose utilization without hypoglycemic side effects"
same,adverse effects of treatment,[2]; treatment for as long as two weeks,"No adverse effects on plasma ion balance, renal function or renal morphology"
same,stability in the gut,[3],hydrolyzed in the gut to its aglycone phloretin
